The text below walks through data of patent US20230295106A1 (priority 2019, published 2023).

The target of experiment [1] is T1, 5-HT2C edited (accession number AAF35842.1) (Homo sapiens, UniProt P28335, I156V/I160V/N158S). Put plainly: cell-based. The conditions noted are these: 5-HT2C IPOne Agonism Activity.
Target sequence in this assay (P28335 whole entry I156V/N158S/I160V, looked up): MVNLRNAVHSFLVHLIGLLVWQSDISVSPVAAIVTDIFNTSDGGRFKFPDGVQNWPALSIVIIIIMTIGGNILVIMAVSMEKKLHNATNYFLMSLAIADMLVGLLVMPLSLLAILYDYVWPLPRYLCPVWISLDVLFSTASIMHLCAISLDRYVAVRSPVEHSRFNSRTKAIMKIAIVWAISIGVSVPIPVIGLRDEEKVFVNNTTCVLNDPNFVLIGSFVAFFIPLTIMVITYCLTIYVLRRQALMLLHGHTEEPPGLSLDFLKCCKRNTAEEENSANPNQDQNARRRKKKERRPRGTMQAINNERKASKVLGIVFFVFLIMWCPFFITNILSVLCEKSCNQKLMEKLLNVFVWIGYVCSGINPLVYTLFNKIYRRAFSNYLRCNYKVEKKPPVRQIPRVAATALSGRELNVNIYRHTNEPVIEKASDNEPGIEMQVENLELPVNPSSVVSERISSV
Experiment [2] concerns the target T1, 5-HT2C edited (accession number AAF35842.1). As to the kind of experiment: biochemical. The settings on record: 5-HT2C Radioligand Binding Activity.
Target sequence in this assay (P28335 33-458 I156V/N158S/I160V limits assumed): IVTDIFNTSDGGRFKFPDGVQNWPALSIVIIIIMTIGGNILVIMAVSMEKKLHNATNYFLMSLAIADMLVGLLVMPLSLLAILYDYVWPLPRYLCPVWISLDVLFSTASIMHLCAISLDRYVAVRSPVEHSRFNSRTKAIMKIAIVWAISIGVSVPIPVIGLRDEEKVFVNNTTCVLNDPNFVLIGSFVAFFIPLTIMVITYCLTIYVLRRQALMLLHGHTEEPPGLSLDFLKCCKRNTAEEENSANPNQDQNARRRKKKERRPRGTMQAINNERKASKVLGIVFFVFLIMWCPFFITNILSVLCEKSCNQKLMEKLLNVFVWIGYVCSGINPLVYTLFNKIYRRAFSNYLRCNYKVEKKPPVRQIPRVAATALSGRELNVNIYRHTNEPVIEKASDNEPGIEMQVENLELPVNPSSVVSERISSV
In experiment [3] the target is human recombinant 5-HT2C edited receptor (accession number AAF35842.1) (Homo sapiens, UniProt P28335, I156V/N158S/I160V). Put plainly: cell-based. The settings on record: read-out: 5-HT2C IPOne Agonism Activity.
Sequence of human recombinant 5-HT2C edited receptor (accession number AAF35842.1) (P28335 whole entry I156V/N158S/I160V, looked up): as the sequence (P28335 whole entry I156V/N158S/I160V, looked up) above

For the compound `CCN(CC)C(=O)[C@@H]1C=C(c2cc(OC)cc(OC)c2)CN(C)C1` (single isomer, unassigned) [Compound 5, 5-(3,5-dimethoxyphenyl)-N,N-diethyl-1-methyl-1,2,3,6-tetrahydropyridine-3-carboxamide], in experiment [1], the EC50 fell in the range of 101 to 1000 nM. This compound came in with a 50% inhibitory concentration (IC50) in experiment [2] of 101 to 1000 nM.

On to `CCN(CC)C(=O)[C@@H]1C=C(c2cc(OC)cc(OC)c2)CN(C)C1` (single isomer, unassigned) [Compound 6, 5-(3,5-dimethoxyphenyl)-N,N-diethyl-1-methyl-1,2,3,6-tetrahydropyridine-3-carboxamide], for which, in experiment [1], the EC50 was 1000 to 10000 nM. In addition, the half-inhibitory concentration (IC50) in experiment [2] is 1000 to 10000 nM.

Turning to `CCN(CC)C(=O)[C@@H]1C=C(c2ccccc2OC)CN(C)C1` (single isomer, unassigned) [Compound 7, N,N-diethyl-5-(2-methoxyphenyl)-1-methyl-1,2,3,6-tetrahydropyridine-3-carboxamide], the EC50 in experiment [1] lay in the range of 101 to 1000 nM. Besides, the IC50 in experiment [2] is 101 to 1000 nM.

In turn, `CCN(CC)C(=O)[C@@H]1C=C(c2ccccc2OC)CN(C)C1` (single isomer, unassigned) [Compound 8, N,N-diethyl-5-(2-methoxyphenyl)-1-methyl-1,2,3,6-tetrahydropyridine-3-carboxamide] returned an EC50 in experiment [1] of 1000 to 10000 nM. Further, the IC50 in experiment [2] lay in the range of 1000 to 10000 nM.

For the compound `CCN(CC)C(=O)[C@@H]1C=C(c2cccc(OC)c2)CN(C)C1` (single isomer, unassigned) [Compound 9, N,N-diethyl-5-(3-methoxyphenyl)-1-methyl-1,2,3,6-tetrahydropyridine-3-carboxamide], in experiment [1], the EC50 is 10 to 100 nM. The IC50 in experiment [2] was in the range of 10 to 100 nM.

In experiment [1], `CCN(CC)C(=O)[C@@H]1C=C(c2cccc(OC)c2)CN(C)C1` (single isomer, unassigned) [Compound 10, N,N-diethyl-5-(3-methoxyphenyl)-1-methyl-1,2,3,6-tetrahydropyridine-3-carboxamide] came in with an EC50 of 101 to 1000 nM. Moreover, the IC50 in experiment [2] was in the range of 101 to 1000 nM.

Compound `CN(C)C1Cc2cccc3ccn(c23)C1` (single isomer, unassigned) [Compound 14, N,N-dimethyl-5,6-dihydro-4H-pyrrolo[3,2,1-ij]quinolin-5-amine] registered an EC50 in experiment [1] of 101 to 1000 nM. In experiment [2], the half-inhibitory concentration (IC50) was in the range of 10 to 100 nM.

As to `CN(C)C1Cc2cccc3ccn(c23)C1` (single isomer, unassigned) [Compound 15, N,N-dimethyl-5,6-dihydro-4H-pyrrolo[3,2,1-ij]quinolin-5-amine], in experiment [3], the EC50 was 101 to 1000 nM. Further, the IC50 in experiment [2] lay within 101 to 1000 nM.

`NC1Cc2cccc3ccn(c23)C1` (centres unmarked) [Compound 13, 5,6-dihydro-4H-pyrrolo[3,2,1-ij]quinolin-5-amine] came in with an EC50 in experiment [1] of 101 to 1000 nM. Moreover, the IC50 in experiment [2] was 101 to 1000 nM.

In experiment [1], `CCN(CC)C1Cc2cccc3ccn(c23)C1` (centres unmarked) [Compound 16, N,N-diethyl-5,6-dihydro-4H-pyrrolo[3,2,1-]quinolin-5-amine] yielded an EC50 of 101 to 1000 nM. The same compound yielded a 50% inhibitory concentration (IC50) in experiment [2] of 101 to 1000 nM.

For the compound `NC1Cc2cc(F)cc3ccn(c23)C1` (centres unmarked) [Compound 17, 8-fluoro-5,6-dihydro-4H-pyrrolo[3,2,1-ij]quinolin-5-amine], the EC50 in experiment [1] fell in the range of 101 to 1000 nM. The compound further came in with an IC50 in experiment [2] of 101 to 1000 nM.

`NC1Cc2c(F)ccc3ccn(c23)C1` (centres unmarked) [Compound 19, 7-fluoro-5,6-dihydro-4H-pyrrolo[3,2,1-ij]quinolin-5-amine] yielded an EC50 in experiment [1] of 101 to 1000 nM. Moreover, the concentration for half-maximal inhibition (IC50) in experiment [2] was 101 to 1000 nM.

In experiment [1], `NC1Cc2cc(Cl)cc3ccn(c23)C1` (centres unmarked) [Compound 21, 8-chloro-5,6-dihydro-4H-pyrrolo[3,2,1-ij]quinolin-5-amine] gave an EC50 of 101 to 1000 nM. Also, in experiment [2], the IC50 was 101 to 1000 nM.

For the compound `NC1Cc2c(Cl)ccc3ccn(c23)C1` (centres unmarked) [Compound 23, 7-chloro-5,6-dihydro-4H-pyrrolo[3,2,1-ij]quinolin-5-amine], the EC50 in experiment [1] was 101 to 1000 nM. Besides, the IC50 in experiment [2] lay within 101 to 1000 nM.

With `COc1cc2c3c(ccn3CC(N)C2)c1` (centres unmarked) [Compound 25, 8-methoxy-5,6-dihydro-4H-pyrrolo[3,2,1-ij]quinolin-5-amine], the EC50 in experiment [1] lay in the range of 1000 to 10000 nM. The compound further displayed an IC50 in experiment [2] of 1000 to 10000 nM.

For the compound `NC1Cc2cccc3[nH]cc(c23)C1` (centres unmarked) [Compound 27, 1,3,4,5-tetrahydrobenzo[cd]indol-4-amine], in experiment [1], the EC50 lay in the range of 101 to 1000 nM. The same compound displayed an IC50 in experiment [2] of 101 to 1000 nM.

In general, IC50 refers to the concentration needed to halve the response being measured. A high value points to lower potency.
